In ChEMBL document CHEMBL5543109, “Novel β-Hairpin Antimicrobial Peptide Containing the β-Turn Sequence of -NG- and the Tryptophan Zippers Facilitate Self-Assembly into Nanofibers, Exhibiting Excellent Antimicrobial Performance” (J Med Chem, 2024):
In brackets after ≈: the same amount, converted by molar mass. Residues, ends and D or L forms follow the SMILES beside them.

Assays:
Staphylococcus aureus [1] = assay: Antibacterial activity against methicillin resistant Staphylococcus aureus incubated for 18 hrs by broth microdilution method; format: functional
Staphylococcus aureus [2] = assay: Antibacterial activity against methicillin resistant Staphylococcus aureus 113 incubated for 18 hrs by broth microdilution method; format: functional
Staphylococcus aureus [3] = assay: Antibacterial activity against Staphylococcus aureus S794 incubated for 18 hrs by broth microdilution method; format: functional
Staphylococcus aureus [4] = assay: Antibacterial activity against Staphylococcus aureus S125 incubated for 18 hrs by broth microdilution method; format: functional
Staphylococcus aureus [5] = assay: Antibacterial activity against methicillin resistant Staphylococcus aureus 75 incubated for 18 hrs by broth microdilution method; format: functional
Staphylococcus aureus [6] = assay: Antibacterial activity against Staphylococcus aureus incubated for 18 hrs by broth microdilution method; format: functional
Staphylococcus aureus [7] = assay: Antibacterial activity against kanamycin resistant Staphylococcus aureus incubated for 18 hrs by broth microdilution method; format: functional
Staphylococcus aureus [8] = assay: Antibacterial activity against rifampicin resistant Staphylococcus aureus incubated for 18 hrs by broth microdilution method; format: functional
Escherichia coli [9] = assay: Antibacterial activity against Escherichia coli incubated for 18 hrs by broth microdilution method; format: functional
Escherichia coli [10] = assay: Antibacterial activity against kanamycin resistant Escherichia coli incubated for 18 hrs by broth microdilution method; format: functional
Escherichia coli [11] = assay: Antibacterial activity against rifampicin resistant Escherichia coli incubated for 18 hrs by broth microdilution method; format: functional
Staphylococcus aureus [12] = assay: Antibacterial activity against Staphylococcus aureus ATCC 25923 incubated for 18 hrs by broth microdilution method; format: functional
Bacillus subtilis [13] = assay: Antibacterial activity against Bacillus subtilis ATCC 23857 incubated for 18 hrs by broth microdilution method; format: functional
[14] = system: Staphylococcus epidermidis; assay: Antibacterial activity against Staphylococcus epidermidis ATCC 12228 incubated for 18 hrs by broth microdilution method; format: functional
Klebsiella pneumoniae [15] = assay: Antibacterial activity against Klebsiella pneumoniae ATCC 700603 incubated for 18 hrs by broth microdilution method; format: functional
Escherichia coli [16] = assay: Antibacterial activity against Escherichia coli ATCC 25922 incubated for 18 hrs by broth microdilution method; format: functional
Pseudomonas aeruginosa [17] = assay: Antibacterial activity against Pseudomonas aeruginosa ATCC 27853 incubated for 18 hrs by broth microdilution method; format: functional
Staphylococcus aureus [18] = assay: Bactericidal activity against Staphylococcus aureus ATCC 25923 incubated for 18 hrs by broth microdilution method; format: functional
Bacillus subtilis [19] = assay: Bactericidal activity against Bacillus subtilis ATCC 23857 incubated for 18 hrs by broth microdilution method; format: functional
[20] = system: Staphylococcus epidermidis; assay: Bactericidal activity against Staphylococcus epidermidis ATCC 12228 incubated for 18 hrs by broth microdilution method; format: functional
Klebsiella pneumoniae [21] = assay: Bactericidal activity against Klebsiella pneumoniae ATCC 700603 incubated for 18 hrs by broth microdilution method; format: functional
Escherichia coli [22] = assay: Bactericidal activity against Escherichia coli ATCC 25922 incubated for 18 hrs by broth microdilution method; format: functional
Pseudomonas aeruginosa [23] = assay: Bactericidal activity against Pseudomonas aeruginosa ATCC 27853 incubated for 18 hrs by broth microdilution method; format: functional
Erythrocyte = assay: Hemolytic activity in mouse erythrocytes assessed as concentration required to cause 10% hemolysis incubated for 1 hr; format: toxicity, cell-based
[24] = Retention time of the compound; format: physicochemical
Staphylococcus aureus [25] = assay: Antibacterial activity against Staphylococcus aureus at 2 times MIC preincubated for 1 hr with trypsin followed by enzyme inactivation and bacterial addition and measured after 18 hrs; format: functional; details: time 19 hrs
Staphylococcus aureus [26] = assay: Antibacterial activity against Staphylococcus aureus at 2 times MIC preincubated for 1 hr with chymotrypsin followed by enzyme inactivation and bacterial addition and measured after 18 hrs; format: functional; details: time 19 hrs
[27] = Self-assembly property of compound in water assessed as beta-sheet content; format: physicochemical
[28] = Self-assembly property of compound in PBS assessed as beta-sheet content; format: physicochemical; details: buffer
[29] = Self-assembly property of compound in 50% TFE assessed as beta-sheet content; format: physicochemical

Row | Molecule | MIC (Staphylococcus aureus [1]) [µM] | MIC (Staphylococcus aureus [2]) [µM] | MIC (Staphylococcus aureus [3]) [µM] | MIC (Staphylococcus aureus [4]) [µM] | MIC (Staphylococcus aureus [5]) [µM] | MIC (Staphylococcus aureus [6]) [µM] | MIC (Staphylococcus aureus [7]) [µM] | MIC (Staphylococcus aureus [8]) [µM] | MIC (Escherichia coli [9]) [µM] | MIC (Escherichia coli [10]) [µM] | MIC (Escherichia coli [11]) [µM] | MIC (Staphylococcus aureus [12]) [µM] | MIC (Bacillus subtilis [13]) [µM] | MIC [14] [µM] | MIC (Klebsiella pneumoniae [15]) [µM] | MIC (Escherichia coli [16]) [µM] | MIC (Pseudomonas aeruginosa [17]) [µM] | MBC (Staphylococcus aureus [18]) [µM] | MBC (Bacillus subtilis [19]) [µM] | MBC [20] [µM] | further results
1 | GENTAMICIN | 16 | 0.5 | 32 | 8 | 32 | 0.5 | 0.5 | 0.5 | 0.5 | 32 | 0.5 | – | – | – | – | – | – | – | – | – | –
2 | NCCCC[C@@H](N)C(=O)N[C@H](Cc1c[nH]c2ccccc12)C(=O)N[C@H](CCCCN)C(=O)N[C@H](Cc1c[nH]c2ccccc12)C(=O)N[C@H](CCCCN)C(=O)NCC(=O)NCC(=O)N[C@H](CCCCN)C(=O)N[C@H](Cc1c[nH]c2ccccc12)C(=O)N[C@H](CCCCN)C(=O)N[C@H](Cc1c[nH]c2ccccc12)C(=O)N[C@H](CCCCN)C(N)=O | – | – | – | – | – | – | – | – | – | – | – | 16 (≈ 26.3 µg/mL) | 2 (≈ 3.29 µg/mL) | 4 (≈ 6.58 µg/mL) | 16 (≈ 26.3 µg/mL) | 8 (≈ 13.2 µg/mL) | 64 (≈ 105 µg/mL) | 32 (≈ 52.6 µg/mL) | 8 (≈ 13.2 µg/mL) | 8 (≈ 13.2 µg/mL) | MBC (Klebsiella pneumoniae [21]): 64 µM (≈ 105 µg/mL); MBC (Escherichia coli [22]): 8 µM (≈ 13.2 µg/mL); MBC (Pseudomonas aeruginosa [23]): 128 µM (≈ 211 µg/mL); MHC (Erythrocyte): > 512 µM; Retention_time [24]: 11.03 min; Activity (Staphylococcus aureus [25]): 100%; Activity (Staphylococcus aureus [26]): 100%
3 | C[C@@H](O)[C@H]1C(=O)N2C(C(=O)O)=C(SCCNC=N)C[C@H]12 [IMIPENEM ANHYDROUS] | 32 (≈ 9.58 µg/mL) | 0.5 (≈ 0.15 µg/mL) | 0.5 (≈ 0.15 µg/mL) | 0.5 (≈ 0.15 µg/mL) | 256 (≈ 76.6 µg/mL) | 0.5 (≈ 0.15 µg/mL) | 0.5 (≈ 0.15 µg/mL) | 0.5 (≈ 0.15 µg/mL) | 0.5 (≈ 0.15 µg/mL) | 8 (≈ 2.39 µg/mL) | 0.5 (≈ 0.15 µg/mL) | – | – | – | – | – | – | – | – | – | –
4 | NCCCC[C@@H](N)C(=O)N[C@H](Cc1c[nH]c2ccccc12)C(=O)N[C@H](CCCCN)C(=O)N[C@H](Cc1c[nH]c2ccccc12)C(=O)N[C@H](CCCCN)C(=O)N1CCC[C@@H]1C(=O)NCC(=O)N[C@H](CCCCN)C(=O)N[C@H](Cc1c[nH]c2ccccc12)C(=O)N[C@H](CCCCN)C(=O)N[C@H](Cc1c[nH]c2ccccc12)C(=O)N[C@H](CCCCN)C(N)=O | – | – | – | – | – | – | – | – | – | – | – | 16 (≈ 27 µg/mL) | 4 (≈ 6.74 µg/mL) | 4 (≈ 6.74 µg/mL) | 16 (≈ 27 µg/mL) | 8 (≈ 13.5 µg/mL) | 8 (≈ 13.5 µg/mL) | 32 (≈ 53.9 µg/mL) | 8 (≈ 13.5 µg/mL) | 16 (≈ 27 µg/mL) | MBC (Klebsiella pneumoniae [21]): 16 µM (≈ 27 µg/mL); MBC (Escherichia coli [22]): 8 µM (≈ 13.5 µg/mL); MBC (Pseudomonas aeruginosa [23]): 32 µM (≈ 53.9 µg/mL); MHC (Erythrocyte): > 512 µM; Retention_time [24]: 11.539 min; Activity [27]: 35%; Activity [28]: 47%; Activity [29]: 30.4%; Activity (Staphylococcus aureus [25]): 100%; Activity (Staphylococcus aureus [26]): 100%
5 | CC[C@H](C)[C@H](N)C1=N[C@H](C(=O)N[C@@H](CC(C)C)C(=O)N[C@H](CCC(=O)O)C(=O)N[C@H](C(=O)N[C@H]2CCCCNC(=O)[C@H](CC(N)=O)NC(=O)[C@@H](CC(=O)O)NC(=O)[C@H](Cc3cnc[nH]3)NC(=O)[C@@H](Cc3ccccc3)NC(=O)[C@H]([C@@H](C)CC)NC(=O)[C@@H](CCCN)NC2=O)[C@@H](C)CC)CS1 [BACITRACIN] (HELM PEPTIDE1{[CC[C@H](C)[C@H](N)C1=N[C@H](C(=O)[*:2])CS1].L.[dE].I.K.[NCCC[C@@H](N[*:1])C(=O)[*:2]].I.[dF].H.[dD].N}$PEPTIDE1,PEPTIDE1,5:R3-11:R2$$$V2.0) | 0.5 (≈ 0.711 µg/mL) | 16 (≈ 22.8 µg/mL) | 256 (≈ 364 µg/mL) | 8 (≈ 11.4 µg/mL) | 0.5 (≈ 0.711 µg/mL) | 32 (≈ 45.5 µg/mL) | 16 (≈ 22.8 µg/mL) | 256 (≈ 364 µg/mL) | 256 (≈ 364 µg/mL) | 256 (≈ 364 µg/mL) | 256 (≈ 364 µg/mL) | 32 (≈ 45.5 µg/mL) | > 128 | 16 (≈ 22.8 µg/mL) | > 128 | > 128 | > 128 | – | – | – | –
6 | NC[C@H]1O[C@H](O[C@H]2[C@H](O)[C@@H](O[C@H]3O[C@H](CO)[C@@H](O)[C@H](N)[C@H]3O)[C@H](N)C[C@@H]2N)[C@H](O)[C@@H](O)[C@@H]1O [KANAMYCIN] | 256 (≈ 124 µg/mL) | 256 (≈ 124 µg/mL) | 16 (≈ 7.75 µg/mL) | 256 (≈ 124 µg/mL) | 256 (≈ 124 µg/mL) | 0.5 (≈ 0.242 µg/mL) | 256 (≈ 124 µg/mL) | 4 (≈ 1.94 µg/mL) | 4 (≈ 1.94 µg/mL) | 256 (≈ 124 µg/mL) | 4 (≈ 1.94 µg/mL) | < 1 | < 1 | > 128 | 64 (≈ 31 µg/mL) | 8 (≈ 3.88 µg/mL) | > 128 | – | – | – | –
